Experimental data taken from US8598131B2, “Method for treatment of lung infections by administration of aminoglycosides by aerolisation” (priority 2010, dated 2013).

Legend:
[1] = Safety assessment in the clinical study (adverse events, local irritation); type: in vivo; conditions: 180 mg Tobramycin per ml, healthy subjects
Procedure: According to one aspect of the present disclosure, a pharmaceutical solution comprising 180 mg Tobramycin per ml water is used. This corresponds to approximately 3 fold the concentration of the solution in the marketed product (TOBI®). Tobramycin at 60 mg/mL is known to be well tolerated in healthy volunteers even at higher total dose levels; however it is considered that this increase in concentration potentially increases the risk of local irritation, but is not considered to be the primary driver for systemic exposure or systemic side effects in this study since the total dose level is lower.
Safety was assessed as well by reviewing adverse events data and vital signs data including pulse oximetry and spirometry data.

[2] = Gamma scintigraphy lung deposition, two way crossover study; conditions: standard treatment, 300 mg using 5 mL in a Pari nebulizer
Procedure: To assess the lung deposition of Tobramycin according to the therapeutic method according to the present disclosure, a two way non-randomised crossover study to studying the pulmonary distribution and pharmacokinetics in healthy subjects following single dose administration of Tobramycin via the Tobrair® device and PARI LC® PLUS jet nebulizer was performed. The study was designed as an open-labelled study as it is not possible to mask the identity of the aerosol delivery system used.
18 healthy, voluntary males and healthy, voluntary, non-pregnant, non-lactating females where subjected to the following treatment regimes:
Approximately 63 mg Tobramycin (180 mg/mL×0.35 mL) delivered to the lungs via the novel Tobrair® device over 7 deep, slow inhalations.
Gamma scintigraphy may also provide an assessment of the regional distribution of deposited drug or formulation in the lungs, with central regions representing mainly large airways and peripheral regions representing mainly small airways and alveoli.
In order to use gamma scintigraphy to assess the bronchopulmonary distribution of Tobramycin, the drug solution was labelled with a gamma emitting radioisotope as a surrogate marker. More specifically, technetium-99m diethylene triamine pentacetic acid (^99mTc-DTPA) was used in this study to achieve 10-20 MBq per dose using the Tobrair® device and PARI LC® PLUS jet nebulizer.

NCC1OC(OC2C(N)CC(N)C(OC3OC(CO)C(O)C(N)C3O)C2O)C(N)CC1O [Tobramycin, (2S,3R,4S,5S,6R)-4-amino-2-{[(1S,2S,3R,4S,6R)-4,6-diamino-3-{[2R,3R,5S,6R)-3-amino-6-(aminomethyl)-5-hydroxyoxan-2-yl]oxy}-2-(hydroxymethylcyclohexyl]oxy)-6-(hydroxymethyl)oxane-3,5-diol]
local irritation [1]: only a few incidents of local irritation | dose reaching the lungs [2]: approx. 10%
